These results are taken from US10959979B2, “Small molecules against cancer” (Biokine Therapeutics Ltd., priority 2015, dated 2021).

In brackets after ≈: the same amount, converted by molar mass.

As usually defined, the IC50 is the concentration that inhibits the measured activity by half. For orientation: % Inhibition means the percentage by which the read-out fell short of the control. The low end stands for a response near the control, the high end for a response far below the control.

In test [1] the test system is MV4-11 human acute myeloid leukemia cells. As to the kind of experiment: Cancer cell viability, FACS with propidium iodide staining. The format is cell-based. The method, then: (§1) In order to assess the effect of compounds of Table 2 on cancer cell viability, the in vitro effect of the compounds on MV4-11 human acute myeloid leukemia cells was evaluated. The cancer cells were incubated in RPMI cell medium with 1% fetal calf serum (FCS) at a concentration of 2×10^5 cells/well at a final volume of 250 μl in 96-well plate. The compounds were added to the cells at the indicated concentrations. The cells were incubated for 24 hours and the number of dead and viable cells was then evaluated by fluorescence-activated cell sorting (FACS), using propidium iodide (PI) staining.

In the next test the test system is MV4-11 (FLT3-ITD) cells. As to the kind of experiment: AML cells in vivo: NSG mice transplanted with MV4-11 cells. More on the design: species or system NOD scid gamma (NSG) mice. The conditions noted are these: BKT300 at 98% purity; 1 mg/Kg intraperitoneally for three consecutive days from day 21; day 25; anti human CD45. The procedure: The effect of BKT300 (at 98% purity) on the proliferation of AML cells in vivo was examined by treatment of NOD scid gamma (NSG) mice transplanted with MV4-11 (FLT3-ITD) cells.
The mice were subjected to irradiation with 300 rad and on the following day were transplanted by IV injection with MV4-11 (FLT3-ITD) cells, 10×10^6 cells/mouse. 21 days following transplantation, the treated group was injected intraperitoneally with 1 mg/Kg of BKT300 (98% purity) per injection for three consecutive days. On day 25 following transplantation, mice were sacrificed and the survival of the human AML blasts in the blood, spleen and the bone marrow was evaluated using anti human CD45.

For the next test, the target named is MIP3a (Homo sapiens, UniProt P78556). As to the kind of experiment: Migration of CD4+ T-cells toward MIP3a (Transwell migration assay). The test is classed as cell-based. The conditions noted are these: 50 μg/ml; BKT300 at 78% purity. The procedure:
(§2) 600 μl of RPMI medium was added to the lower chambers of Transwell® transmigration plates, supplemented with 2 μg/ml of MIP3a, 100 ng/ml of SDF-1 or 10 ng/ml of MCP-1. The tested small molecule was added to the lower chambers at the indicated concentration, except in control samples. The MIP3a, SDF-1 or MCP-1 was incubated with the small molecule for 30 minutes at room temperature before the initiation of the migration assay. Following 30 minutes of incubation 2×10^5 immune cells were added to the upper chambers of the transmigration plates in a total volume of 100 μl. Cells which migrated within 3 hours to the bottom chamber of the Transwell® plates were counted using a FACScalibur™ flow cytometer.
To evaluate migration toward MIP3a, peripheral blood mononuclear cells (PBMCs) were isolated from heparinized venous blood by centrifugation over Ficoll Histopaque® 1077. CD4+ T cells were further isolated with RosetteSep™ human CD4+ T-cell Enrichment cocktail (StemCell Technologies Inc.), according to the manufacturer's instructions. CD4+ T cells were re-suspended in RPMI medium containing 1% fetal calf serum (FCS).

The test system of test [2] is Raji human lymphoma cells. As to the kind of experiment: Cancer cell viability, FACS with propidium iodide staining. The format is cell-based. The conditions noted are these: BKT300 at 78% purity. The procedure:
as §1
(§3) The in vitro effect of BKT300 (at 78% purity) on cancer cell viability was further evaluated using a variety of additional cancer cell lines, using procedures as described hereinabove with respect to MV4-11 cells.

Test [3] deals with Bjab human lymphoma cells. Described as above. The settings on record: 8.5 μg/ml; BKT300 at 78% purity. The test is classed as cell-based. The method, then:
as §1, §3

Test [4] relates to H460 human large cell lung cancer cells. The test is described as above. The settings on record: 10 μg/ml; BKT300 at 78% purity. The test is classed as cell-based. The method, then: as §1, §3
In test [5] the test system is Jurkat human acute lymphoblastic leukemia cells. The test is described as above. The test is classed as cell-based. The settings on record: BKT300 at 78% purity. The method, then:
as §1, §3

Test [6] deals with H345 human small cell lung cancer cells. The description is as above. The settings on record: 8.5 μg/ml; BKT300 at 78% purity. The test is classed as cell-based. The method, then: as §1, §3
Test [7] deals with RPMI human multiple myeloma cells. The test is described as above. The test is classed as cell-based. The conditions noted are these: BKT300 at 78% purity; concentrations as low as 2 μg/ml (the lowest tested concentration). The method, then: as §1, §3
The target of a further test is SDF-1 (Homo sapiens, UniProt P48061). As to the kind of experiment: Migration of Jurkat cells towards SDF-1 (Transwell migration assay). The format is cell-based. The settings on record: for Inhibition of migration of lymphocytic Jurkat cells towards SDF-1: 10 μg/ml. The method, then:
as §2
To evaluate migration towards SDF-1, Jurkat cells were re-suspended in RPMI medium containing 1% fetal calf serum (FCS).

A further test deals with 440 kinases. As to the kind of experiment: LanthaScreen europium kinase binding assay, screen of 440 kinases. Also on record: species or system human. The procedure: (§4) In order to further characterize the effect of BKT300 on cell signaling, kinase profiling of BKT300 (at 78% purity) was performed (by the Life Technologies SelectScreen® Biochemical Profiling Lab) using a LanthaScreen® europium kinase binding assay to screen 440 kinases.
(§5) The principle of the LanthaScreen® assay is depicted in FIG. 48. Binding of an Alexa Fluor® conjugate or “tracer” to a kinase is detected by addition of a europium (Eu)-labeled anti-tag antibody. Binding of the tracer and antibody to a kinase results in a high degree of FRET, whereas displacement of the tracer with a kinase inhibitor results in a loss of FRET. The kinase tracers are based on ATP-competitive kinase inhibitors, making them suitable for detection of any compounds that bind to the ATP site. Inhibitors that bind the ATP site include both Type I kinase inhibitors, which bind solely to the ATP site, and Type II inhibitors (e.g., imatinib, sorafenib, BIRB-796), which bind to both the ATP site and a second site often referred to as the allosteric site.
Background: In TR-FRET formats the signal depends on donor and acceptor labels being close together.

A further test concerns the target T1, MLCK (MLCK2) (Homo sapiens, UniProt Q32MK0).
T1 sequence (Q32MK0 1-819): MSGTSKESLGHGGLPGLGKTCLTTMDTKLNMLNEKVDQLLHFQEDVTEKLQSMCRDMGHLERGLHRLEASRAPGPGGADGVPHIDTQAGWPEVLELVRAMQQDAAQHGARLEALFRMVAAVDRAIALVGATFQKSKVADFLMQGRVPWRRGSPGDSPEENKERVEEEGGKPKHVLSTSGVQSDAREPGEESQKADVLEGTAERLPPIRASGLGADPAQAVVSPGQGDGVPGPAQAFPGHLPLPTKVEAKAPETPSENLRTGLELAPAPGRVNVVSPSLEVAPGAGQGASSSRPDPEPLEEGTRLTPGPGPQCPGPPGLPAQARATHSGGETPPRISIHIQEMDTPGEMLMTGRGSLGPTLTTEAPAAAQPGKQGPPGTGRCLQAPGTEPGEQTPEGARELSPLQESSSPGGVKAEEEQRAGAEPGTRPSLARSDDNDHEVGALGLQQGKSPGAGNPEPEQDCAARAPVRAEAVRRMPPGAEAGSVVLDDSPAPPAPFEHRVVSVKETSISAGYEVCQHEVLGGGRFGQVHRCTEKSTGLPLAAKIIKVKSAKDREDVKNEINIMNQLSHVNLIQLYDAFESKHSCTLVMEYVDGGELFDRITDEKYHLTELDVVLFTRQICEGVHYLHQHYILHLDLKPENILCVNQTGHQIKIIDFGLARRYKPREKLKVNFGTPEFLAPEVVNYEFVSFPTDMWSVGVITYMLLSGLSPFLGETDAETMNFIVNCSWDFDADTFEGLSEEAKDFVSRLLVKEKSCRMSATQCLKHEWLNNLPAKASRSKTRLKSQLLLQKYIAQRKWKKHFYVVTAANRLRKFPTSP
As to the kind of experiment: LanthaScreen europium kinase binding assay. The conditions noted are these: BKT300 at 78% purity. The procedure:
as §4, §5

The next test deals with MCP-1 (Homo sapiens, UniProt P13500). As to the kind of experiment: Migration of THP-1 cells towards MCP-1 (Transwell migration assay). The settings on record: BKT300 at 78% purity. The test is classed as cell-based. The procedure:
as §2
To evaluate migration towards MCP-1, THP-1 cells were re-suspended in RPMI medium containing 1% fetal calf serum (FCS).

SDF-1, sequence (P48061 22-93): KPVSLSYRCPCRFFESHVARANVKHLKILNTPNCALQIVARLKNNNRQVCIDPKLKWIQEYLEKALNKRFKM
MCP-1, sequence (P13500 24-99): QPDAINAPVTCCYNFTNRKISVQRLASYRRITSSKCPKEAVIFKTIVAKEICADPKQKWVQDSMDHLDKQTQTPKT
MIP3a, sequence (P78556 27-96): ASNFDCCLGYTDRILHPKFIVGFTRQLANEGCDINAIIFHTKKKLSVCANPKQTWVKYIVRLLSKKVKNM

For the molecule `CCCCCc1cc2cc(O)cc(Oc3c(O)cc(O)cc3CCCCC)c2c(=O)o1` [BKT300], in test [1] (4.25 μg/ml, BKT300 at 98% purity vs 78% purity), the “Degree of cell death of MV4-11 cells, 98% purity compared with 78% purity” value is reported as “considerably greater degree of cell death”. Also, the “Cell death of MV4-11 cells” value in test [1] (BKT300 at 78% purity, concentrations as low as 2 μg/ml (the lowest tested concentration), 24 hours) is recorded as “induced cell death”. The “Induction of cell death of MV4-11 cells, 98% purity compared with 78% purity” value in test [1] (BKT300 at 98% purity vs BKT300 at 78% purity) is “significantly more effective”. In addition, the IC50 in test [1] (Homo sapiens, MV4-11, BKT300 at 78% purity, 24 hours, read-out: IC50 for induced death of MV4-11 cells) was determined as 2.72 µg/mL (≈ 6.38 µM); in test [5] (Homo sapiens, Jurkat, read-out: IC50 for BKT300-induced death of Jurkat cells) it was 3.5 µg/mL (≈ 8.21 µM). In the test on MV4-11 (FLT3-ITD) cells, the “Number and percentage of AML cells in the bone marrow of mice” value is “dramatically reduced”. The “Inhibition of CD4+ T-cell migration towards MIP3a” value at MIP3a was “completely inhibited”. Also, the “Cell death of Raji cells” value in test [2] (4.25 μg/ml) was “slight cell death”; in test [2] (8.5 μg/ml), “about 30%”. Besides, the “Cell death of Bjab cells” value in test [3] was “about 30%”. For the same molecule, the “Cell death of H460 cells” value in [4] is recorded as “about 80%”. For the same molecule, the “Cell death of Jurkat cells” value in test [5] (concentrations as low as 2 μg/ml (the lowest tested concentration)) is on record as “induced cell death”. For the same molecule, the “Cell death of H345 cells” value in [6] is listed as “over 90%”. Moreover, the “Cell death of RPMI cells” value in [7] is listed as “induced cell death”. The “Inhibition of migration of lymphocytic Jurkat cells towards SDF-1” value at SDF-1 (BKT300 at 78% purity) and at SDF-1 (BKT300 at 98% purity) was “significantly inhibited” throughout. On SDF-1 (at a concentration of about 10 μg/ml), the “Selectivity of inhibition of SDF-1 function over MCP-1 and/or MIP3a function” value is “relatively selective manner”. The “Inhibition of 36 of the 440 screened kinases” value in the test with 440 kinases (BKT300 at 78% purity) is on record as “more than 40%”. Also, the “Affinity of BKT300 to kinases, based on the kinase screening assay” value with 440 kinases (estimated from Table 3) is listed as “few tens”. The “% Inhibition” value on MLCK (MLCK2) is reported as 58%. Moreover, the “Inhibition of migration of monocytic THP-1 cells towards MCP-1” value at MCP-1 (10 μg/ml) is “no apparent effect”; on MCP-1 (50 μg/ml), “strong inhibition”.
